Measurements: US9796711B2, “Substituted pyrazolo[3,4-b]pyridin-6-carboxylic acids and method of use” (AbbVie S.àr.l., priority 2015, dated 2017)

Legend:
ΔF508-CFTR [1] = target: T1, ΔF508-CFTR (Homo sapiens, UniProt P13569, DEL508-508); test: CFTR cell surface levels using HRP-tagged ΔF508-CFTR expressing CFBE cells, intrinsic corrector capacity; assay type: cell-based; conditions: HRP-tagged ΔF508-CFTR CFBE41o- cells, compounds alone (intrinsic corrector capacity), 20 hours at 33° C.; for % Activation: positive control 3 μM corrector; for EC50: read-out: EC50
T1 construct: host or cells: CFBE41o-, doxycycline-inducible
T1 sequence (P13569 with tags, fused parts or gaps DEL508-508): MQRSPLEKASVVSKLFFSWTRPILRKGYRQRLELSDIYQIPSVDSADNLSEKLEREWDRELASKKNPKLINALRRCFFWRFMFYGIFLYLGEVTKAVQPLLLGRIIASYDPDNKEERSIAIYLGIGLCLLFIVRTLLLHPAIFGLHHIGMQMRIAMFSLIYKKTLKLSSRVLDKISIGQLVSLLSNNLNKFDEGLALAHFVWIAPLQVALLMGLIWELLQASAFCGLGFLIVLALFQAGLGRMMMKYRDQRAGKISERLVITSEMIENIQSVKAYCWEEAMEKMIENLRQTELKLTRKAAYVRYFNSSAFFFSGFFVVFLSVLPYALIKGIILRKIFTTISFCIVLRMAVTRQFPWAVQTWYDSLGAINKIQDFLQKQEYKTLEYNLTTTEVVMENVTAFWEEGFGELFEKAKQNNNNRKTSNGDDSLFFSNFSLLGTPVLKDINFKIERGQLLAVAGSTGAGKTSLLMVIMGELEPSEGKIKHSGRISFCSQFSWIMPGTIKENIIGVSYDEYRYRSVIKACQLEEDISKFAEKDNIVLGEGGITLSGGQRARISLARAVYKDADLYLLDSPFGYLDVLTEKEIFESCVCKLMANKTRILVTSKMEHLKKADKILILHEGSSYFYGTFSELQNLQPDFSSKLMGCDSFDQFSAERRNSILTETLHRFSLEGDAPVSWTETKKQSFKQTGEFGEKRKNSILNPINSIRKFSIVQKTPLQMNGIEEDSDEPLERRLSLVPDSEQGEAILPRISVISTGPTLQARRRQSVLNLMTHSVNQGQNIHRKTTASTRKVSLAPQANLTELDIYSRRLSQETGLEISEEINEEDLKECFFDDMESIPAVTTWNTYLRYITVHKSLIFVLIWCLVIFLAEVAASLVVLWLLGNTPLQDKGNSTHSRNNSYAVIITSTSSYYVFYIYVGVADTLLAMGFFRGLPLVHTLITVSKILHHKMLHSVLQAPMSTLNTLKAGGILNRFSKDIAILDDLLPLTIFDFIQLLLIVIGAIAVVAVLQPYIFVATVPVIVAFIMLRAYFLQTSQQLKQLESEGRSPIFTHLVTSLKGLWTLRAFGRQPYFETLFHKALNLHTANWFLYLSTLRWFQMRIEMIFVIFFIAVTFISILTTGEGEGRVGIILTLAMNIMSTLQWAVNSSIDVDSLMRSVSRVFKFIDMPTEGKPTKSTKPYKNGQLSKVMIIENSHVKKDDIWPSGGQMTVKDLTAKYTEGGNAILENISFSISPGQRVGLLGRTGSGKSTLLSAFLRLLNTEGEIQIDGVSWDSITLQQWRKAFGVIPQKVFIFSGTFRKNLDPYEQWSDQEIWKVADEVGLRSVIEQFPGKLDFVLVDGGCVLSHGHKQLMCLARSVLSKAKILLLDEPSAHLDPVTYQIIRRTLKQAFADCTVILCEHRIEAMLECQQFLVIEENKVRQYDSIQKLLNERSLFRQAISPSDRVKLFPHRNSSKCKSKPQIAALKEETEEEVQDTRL
Method in brief: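 Here the cells express ΔF508-CFTR with horseradish peroxidase inserted in extracellular loop 4, so only rescued channel at the surface gives luminescent signal. Compounds act on their own, 20 h at the reduced temperature of 33 °C; values are percent activity relative to DMSO and a 3 μM corrector.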

ΔF508-CFTR [2] = target: T1, ΔF508-CFTR; test: CFTR cell surface levels using HRP-tagged ΔF508-CFTR expressing CFBE cells, in the presence of a co-corrector; assay type: cell-based; conditions: HRP-tagged ΔF508-CFTR expressing CFBE cells, in the presence of 3 μM co-corrector; for EC50: read-out: EC50
Method in brief: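 Cells were seeded with 0.5 μg/mL doxycycline and held 68 h at 37 °C. Test compounds plus 3 μM co-corrector (final 0.1% DMSO) were then added for 20 h at 33 °C. Washed cells received HRP substrate, and luminescence was normalized between DMSO and 3 μM co-corrector controls.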

| Structure (SMILES) | % Activation (ΔF508-CFTR [1]) | EC50 (ΔF508-CFTR [1]) | % Activation (ΔF508-CFTR [2]) | EC50 (ΔF508-CFTR [2]) |
| --- | --- | --- | --- | --- |
| COC1CCN(c2ccc(-c3cc(C(=O)O)nc4c3c(C(C)C)nn4C3CCCCC3)cn2)C1 (stereo not shown) [compound 224, 1-cyclohexyl-4-[6-(3-methoxypyrrolidin-1-yl)pyridin-3-yl]-3-(propan-2-yl)-1H-pyrazolo[3,4-b]pyridine-6-carboxylic acid] | 189.6% | 1180 nM | 396.65% | 896 nM |
| CC(C)c1nn(-c2cccc(N3CC(O)C3)c2)c2nc(C(=O)O)cc(-c3ccc(N4CCOCC4)cc3)c12 [compound 225, 1-[3-(3-hydroxyazetidin-1-yl)phenyl]-4-[4-(morpholin-4-yl)phenyl]-3-(propan-2-yl)-1H-pyrazolo[3,4-b]pyridine-6-carboxylic acid] | 251.5% | 1980 nM | 395.7% | 901 nM |
| Cc1cccc(-n2nc(C(C)C)c3c(N4CC5CN(CC#N)CC5C4)cc(C(=O)O)nc32)c1 (stereo not shown) [compound 226, 4-[5-(cyanomethyl)hexahydropyrrolo[3,4-c]pyrrol-2(1H)-yl]-1-(3-methylphenyl)-3-(propan-2-yl)-1H-pyrazolo[3,4-b]pyridine-6-carboxylic acid] | 189.05% | 3340 nM | 352.2% | 1350 nM |
| CC(C)c1nn(-c2cc(Cl)ccn2)c2nc(C(=O)O)cc(-c3ccc(N4CCOCC4)cc3)c12 [compound 229, 1-(4-chloropyridin-2-yl)-4-[4-(morpholin-4-yl)phenyl]-3-(propan-2-yl)-1H-pyrazolo[3,4-b]pyridine-6-carboxylic acid] | 130.65% | 2150 nM | 298% | 1560 nM |
| COCCN(C)c1ncc(-c2cc(C(=O)O)nc3c2c(C(C)C)nn3-c2cccc(N3CCOCC3)c2)cn1 [compound 230, 4-{2-[(2-methoxyethyl)(methyl)amino]pyrimidin-5-yl}-1-[3-(morpholin-4-yl)phenyl]-3-(propan-2-yl)-1H-pyrazolo[3,4-b]pyridine-6-carboxylic acid] | 368.85% | 1490 nM | 507.3% | 514 nM |
| CC(C)c1nn(-c2cccc(N3CCOCC3)c2)c2nc(C(=O)O)cc(-c3cnc(N(C)C4CCOCC4)nc3)c12 [compound 231, 4-{2-[methyl(oxan-4-yl)amino]pyrimidin-5-yl}-1-[3-(morpholin-4-yl)phenyl]-3-(propan-2-yl)-1H-pyrazolo[3,4-b]pyridine-6-carboxylic acid] | 419% | 733 nM | 625.45% | 570 nM |
| COc1cccc(-n2nc(C)c3c(-c4ccc(N5CCN(CC#N)CC5)cc4)cc(C(=O)O)nc32)c1 [compound 232, 4-{4-[4-(cyanomethyl)piperazin-1-yl]phenyl}-1-(3-methoxyphenyl)-3-methyl-1H-pyrazolo[3,4-b]pyridine-6-carboxylic acid] | 215.6% | 1680 nM | 380.95% | 1280 nM |
| CC(=O)N1CC2CN(c3cc(C(=O)O)nc4c3c(C(C)C)nn4-c3cccc(C)c3)CC2C1 (stereo not shown) [compound 233, 4-(5-acetylhexahydropyrrolo[3,4-c]pyrrol-2(11/)-yl)-1-(3-methylphenyl)-3-(propan-2-yl)-1H-pyrazolo[3,4-b]pyridine-6-carboxylic acid] | 72.33% | 3030 nM | 249.55% | 3340 nM |
| Cc1cccc(-n2nc(C(C)C)c3c(N4CCC5C(CCN5C(=O)OC(C)(C)C)C4)cc(C(=O)O)nc32)c1 (stereo not shown) [compound 234, 4-[1-(tert-butoxycarbonyl)octahydro-5H-pyrrolo[3,2-c]pyridin-5-yl]-1-(3-methylphenyl)-3-(propan-2-yl)-1H-pyrazolo[3,4-b]pyridine-6-carboxylic acid] | 292.97% | 464 nM | 510.27% | 368 nM |
| CC(C)c1nn(C2CCCCC2)c2nc(C(=O)O)cc(-c3cnc(N4CCC(C#N)CC4)nc3)c12 [compound 235, 4-[2-(4-cyanopiperidin-1-yl)pyrimidin-5-yl]-1-cyclohexyl-3-(propan-2-yl)-1H-pyrazolo[3,4-b]pyridine-6-carboxylic acid] | 206.8% | 832 nM | 403.1% | 743 nM |
| CC(C)c1nn(C2CCCCC2)c2nc(C(=O)O)cc(-c3cnc(N(C)C4CCOCC4)nc3)c12 [compound 236, 1-cyclohexyl-4-{2-[methyl(oxan-4-yl)amino]pyrimidin-5-yl}-3-(propan-2-yl)-1H-pyrazolo[3,4-b]pyridine-6-carboxylic acid] | 213.68% | 656 nM | 423.62% | 638 nM |
| COCCN(C)c1ncc(-c2cc(C(=O)O)nc3c2c(C(C)C)nn3C2CCCCC2)cn1 [compound 237, 1-cyclohexyl-4-{2-[(2-methoxyethyl)(methyl)amino]pyrimidin-5-yl}-3-(propan-2-yl)-1H-pyrazolo[3,4-b]pyridine-6-carboxylic acid] | 227% | 510 nM | 372.97% | 324 nM |
| COCCN(C)c1ccc(-c2cc(C(=O)O)nc3c2c(C(C)C)nn3-c2cccc(N3CCCC3)c2)cc1 [compound 238, 4-{4-[(2-methoxyethyl)(methyl)amino]phenyl}-3-(propan-2-yl)-1-[3-(pyrrolidin-1-yl)phenyl]-1H-pyrazolo[3,4-b]pyridine-6-carboxylic acid] | 393.7% | 827 nM | 613.4% | 540 nM |
| COCCN(C)c1ccc(-c2cc(C(=O)O)nc3c2c(C(C)C)nn3-c2cccc(N3CCC3)c2)cn1 [compound 239, 1-[3-(azetidin-1-yl)phenyl]-4-{6-[(2-methoxyethyl)(methyl)amino]pyridin-3-yl}-3-(propan-2-yl)-1H-pyrazolo[3,4-b]pyridine-6-carboxylic acid] | 327.55% | 875 nM | 495.85% | 713 nM |
| CC(C)c1nn(-c2cccc(N3CCC3)c2)c2nc(C(=O)O)cc(-c3ccc(N(C)C4CCOCC4)cc3)c12 [compound 240, 1-[3-(azetidin-1-yl)phenyl]-4-{4-[methyl(oxan-4-yl)amino]phenyl}-3-(propan-2-yl)-1H-pyrazolo[3,4-b]pyridine-6-carboxylic acid] | 380.6% | 588 nM | 609.05% | 516 nM |
| CC(C)c1nn(-c2cc(N3CCOCC3)ccn2)c2nc(C(=O)O)cc(-c3ccc(N4CCOCC4)cc3)c12 [compound 241, 4-[4-(morpholin-4-yl)phenyl]-1-[4-(morpholin-4-yl)pyridin-2-yl]-3-(propan-2-yl)-1H-pyrazolo[3,4-b]pyridine-6-carboxylic acid] | 60.46% | 3340 nM | 259.75% | 2140 nM |
| CC(C)c1nn(-c2cccc(F)c2)c2nc(C(=O)O)cc(-c3ccc(N4CCOCC4)cc3)c12 [compound 242, 1-(3-fluorophenyl)-4-[4-(morpholin-4-yl)phenyl]-3-(propan-2-yl)-1H-pyrazolo[3,4-b]pyridine-6-carboxylic acid] | 206.5% | 603 nM | 394.12% | 338 nM |
| CC(C)c1nn(-c2ccc(F)c(F)c2)c2nc(C(=O)O)cc(-c3ccc(N4CCOCC4)cc3)c12 [compound 243, 1-(3,4-difluorophenyl)-4-[4-(morpholin-4-yl)phenyl]-3-(propan-2-yl)-1H-pyrazolo[3,4-b]pyridine-6-carboxylic acid] | 224.73% | 660 nM | 402.73% | 408 nM |
| CC(C)c1nn(-c2cc(F)cc(F)c2)c2nc(C(=O)O)cc(-c3ccc(N(C)C4CCOCC4)cc3)c12 [compound 245, 1-(3,5-difluorophenyl)-4-{4-[methyl(oxan-4-yl)amino]phenyl}-3-(propan-2-yl)-1H-pyrazolo[3,4-b]pyridine-6-carboxylic acid] | 267.15% | 777 nM | 508.37% | 627 nM |
| CC(C)c1nn(-c2cc(F)cc(F)c2)c2nc(C(=O)O)cc(-c3ccc(N(C)C4CCOCC4)nc3)c12 [compound 246, 1-(3,5-difluorophenyl)-4-{6-[methyl(oxan-4-yl)amino]pyridin-3-yl}-3-(propan-2-yl)-1H-pyrazolo[3,4-b]pyridine-6-carboxylic acid] | 212.75% | 464 nM | 457.57% | 467 nM |
| N#CC1CCN(c2ccc(-c3cc(C(=O)O)nc4c3c(C3CCC3)nn4-c3cccc(N4CCCC4)c3)cc2)CC1 [compound 247, 4-[4-(4-cyanopiperidin-1-yl)phenyl]-3-cyclobutyl-1-[3-(pyrrolidin-1-yl)phenyl]-1H-pyrazolo[3,4-b]pyridine-6-carboxylic acid] | 390.27% | 420 nM | 569.07% | 332 nM |
| N#CC1CCN(c2ccc(-c3cc(C(=O)O)nc4c3c(C3CCC3)nn4-c3cccc(N4CCCC4)c3)cn2)CC1 [compound 248] | 405.93% | 550 nM | 606.83% | 422 nM |
